According to ChEMBL document CHEMBL4765309, “New deferiprone derivatives as multi-functional cholinesterase inhibitors: design, synthesis and in vitro evaluation” (Eur J Med Chem, 2020):
Active and inactive are the calls of the source. The rule behind the calls is not given here.

Legend:
[1] = Metal chelating activity assessed as compound-Zn2+ complex formation at 2 mM in presence of Zn(NO3)2.6H2O by UV-vis spectrophotometric titration analysis
[2] = Metal chelating activity assessed as compound-Cu2+ complex formation by measuring mole fraction that causes maximum variation in absorbance in presence of CuSO4.5H2O by Job's plot analysis
[3] = Metal chelating activity assessed as compound-Fe3+ complex formation by measuring mole fraction that causes maximum variation in absorbance in presence of FeCl3.6H2O by Job's plot analysis
[4] = Cytotoxicity against human U-87 MG cells assessed as cell viability at 10 uM incubated for 24 hrs by MTT assay; assay type: cell-based, U-87MG ATCC; conditions: read-out: Activity
[5] = target: Cholinesterase (Equus caballus) (UniProt P81908); assay: Mixed type inhibition of equine BChE using varying level of acetylthiocholine as substrate by Dixon plot analysis
Cholinesterase = Cholinesterase (Equus caballus, UniProt P81908); assay: Inhibition of equine BChE assessed as inhibition constant using acetylthiocholine as substrate measured for 0.5 to 1.5 mins by Ellman's method
Acetylcholinesterase = Acetylcholinesterase (Electrophorus electricus, UniProt O42275); assay: Inhibition of electric eel AChE assessed as inhibition constant using acetylthiocholine as substrate measured for 0.5 to 1.5 mins by Ellman's method
[6] = Metal chelating activity assessed as compound-Fe3+ complex formation at 1.7 mM in presence of FeCl3.6H2O by UV-vis spectrophotometric titration analysis
[7] = Metal chelating activity assessed as compound-Cu2+ complex formation at 2 mM in presence of CuSO4.5H2O by UV-vis spectrophotometric titration analysis
[8] = Metal chelating activity assessed as compound-Fe3+ complex formation at 2 mM in presence of FeCl3.6H2O by UV-vis spectrophotometric titration analysis

Sequence of Cholinesterase (Equus caballus) (P81908 whole entry): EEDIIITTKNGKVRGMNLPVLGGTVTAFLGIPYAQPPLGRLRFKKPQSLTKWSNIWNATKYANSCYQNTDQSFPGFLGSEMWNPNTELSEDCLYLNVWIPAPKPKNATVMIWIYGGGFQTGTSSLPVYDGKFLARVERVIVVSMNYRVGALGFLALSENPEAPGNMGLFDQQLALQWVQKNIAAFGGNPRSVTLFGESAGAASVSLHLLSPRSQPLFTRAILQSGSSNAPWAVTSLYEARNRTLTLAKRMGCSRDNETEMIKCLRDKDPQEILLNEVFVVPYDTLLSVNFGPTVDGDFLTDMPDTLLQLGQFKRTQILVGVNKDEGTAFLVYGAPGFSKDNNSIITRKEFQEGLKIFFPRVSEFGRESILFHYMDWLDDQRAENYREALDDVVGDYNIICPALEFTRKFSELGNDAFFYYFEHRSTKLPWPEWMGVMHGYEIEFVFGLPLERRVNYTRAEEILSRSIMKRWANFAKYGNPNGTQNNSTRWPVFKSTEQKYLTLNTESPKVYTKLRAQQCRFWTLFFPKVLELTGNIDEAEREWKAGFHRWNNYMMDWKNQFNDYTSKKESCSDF
Sequence of Cholinesterase (P81908 whole entry): as above
Sequence of Acetylcholinesterase (O42275 whole entry): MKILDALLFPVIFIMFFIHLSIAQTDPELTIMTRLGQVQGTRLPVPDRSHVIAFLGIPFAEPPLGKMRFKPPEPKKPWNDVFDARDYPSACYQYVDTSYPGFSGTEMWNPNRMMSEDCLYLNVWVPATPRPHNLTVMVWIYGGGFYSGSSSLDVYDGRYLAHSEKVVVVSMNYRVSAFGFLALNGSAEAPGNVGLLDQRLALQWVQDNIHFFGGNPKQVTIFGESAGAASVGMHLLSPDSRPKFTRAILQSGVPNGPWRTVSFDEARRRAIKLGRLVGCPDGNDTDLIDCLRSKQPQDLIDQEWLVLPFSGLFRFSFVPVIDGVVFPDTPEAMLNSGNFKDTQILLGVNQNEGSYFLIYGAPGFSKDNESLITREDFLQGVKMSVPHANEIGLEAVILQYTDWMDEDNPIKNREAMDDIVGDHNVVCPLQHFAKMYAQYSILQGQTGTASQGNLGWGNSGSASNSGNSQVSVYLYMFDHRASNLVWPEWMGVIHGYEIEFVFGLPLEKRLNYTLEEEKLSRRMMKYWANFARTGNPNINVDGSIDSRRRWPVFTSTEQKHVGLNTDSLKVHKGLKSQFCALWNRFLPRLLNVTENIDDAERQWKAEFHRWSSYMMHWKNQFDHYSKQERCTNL

Cc1c(O)c(=O)ccn1CCCCCCNc1ccnc(NCc2ccccc2)n1
Activity [1]: Active | Activity (mole fraction) [2]: 0.64 | Activity (mole fraction) [3]: 0.5 | viability at 24 h, 10 µM [4]: > 75% | inhibition [5]: Active | Ki (Cholinesterase): 920 nM

Cc1c(OCc2ccccc2)c(=O)ccn1CCCCCCNCc1ccccc1
Activity [1]: inactive | Ki (Acetylcholinesterase): 788 nM | Activity (mole fraction) [3]: 0.52 | viability at 24 h, 10 µM [4]: > 75% | inhibition [5]: Active | Ki (Cholinesterase): 2360 nM | Activity [6]: Active

Cc1c(O)c(=O)ccn1CCCCCCNCc1ccccc1
Activity [1]: inactive | Activity (mole fraction) [2]: 0.37 | Ki (Acetylcholinesterase): 1370 nM | Activity (mole fraction) [3]: 0.53 | Activity [7]: Active | viability at 24 h, 10 µM [4]: > 75% | Activity [8]: Active

Cc1c(OCc2ccccc2)c(=O)ccn1CCCCCCNc1nccc(Cl)n1
viability at 24 h, 10 µM [4]: > 75% | inhibition [5]: Active | Ki (Cholinesterase): 1080 nM | Activity [8]: Active

Cc1c(OCc2ccccc2)c(=O)ccn1CCCCCCNc1ccnc(NCc2ccccc2)n1
Activity (mole fraction) [3]: 0.67 | Activity [7]: Active | viability at 24 h, 10 µM [4]: > 75% | inhibition [5]: Active | Ki (Cholinesterase): 258 nM | Activity [8]: Active

COc1ccccc1CNCCCCCCn1ccc(=O)c(O)c1C
Ki (Acetylcholinesterase): 1340 nM | viability at 24 h, 10 µM [4]: > 75%

Cc1c(OCc2ccccc2)c(=O)ccn1CCCCNCc1ccccc1
viability at 24 h, 10 µM [4]: > 75% | inhibition [5]: Active | Ki (Cholinesterase): 450 nM

COc1ccccc1CNCCCCCCn1ccc(=O)c(OCc2ccccc2)c1C
Ki (Acetylcholinesterase): 2790 nM | viability at 24 h, 10 µM [4]: > 75% | inhibition [5]: Active | Ki (Cholinesterase): 910 nM

Cc1c(OCc2ccccc2)c(=O)ccn1CCCCCCNc1ccccn1
Activity (mole fraction) [3]: 0.7 | viability at 24 h, 10 µM [4]: > 75% | inhibition [5]: Active | Ki (Cholinesterase): 182 nM | Activity [8]: Active
